Measurements: ChEMBL document CHEMBL1122100, “Pyridoquinoxaline N-oxides. 2. Synthesis and antibacterial activity of tricyclic lactams” (1982)
≈ marks a conversion by molar mass, not a printed value.

Tests used:
Assay type in all cases: functional
Escherichia coli [1] = test: Tested in vitro for the minimum inhibitory concentration (MIC) against Escherichia coli
Salmonella enterica [2] = test: Tested in vivo for the antibacterial activity against Salmonella choleraesuis after oral administration of 25 mg/kg in mice
Salmonella enterica [3] = test: Tested in vivo for the antibacterial activity against Salmonella choleraesuis after sc administration of 25 mg/kg in mice; settings: route subcutaneous
Salmonella enterica [4] = test: Tested in vitro for the minimum inhibitory concentration (MIC) against Salmonella choleraesuis
Streptococcus pyogenes = test: Tested in vitro for the minimum inhibitory concentration (MIC) against Strep. pyogenes
Pasteurella multocida [5] = test: Tested in vitro for the minimum inhibitory concentration (MIC) against Pasteurella multocida
Escherichia coli [6] = test: Tested in vivo for the antibacterial activity against Escherichia coli after oral administration in mice; settings: read-out: PD50
Escherichia coli [7] = test: Tested in vivo for the antibacterial activity against Escherichia coli after sc administration in mice; settings: read-out: PD50
Pasteurella multocida [8] = test: Tested in vivo for the antibacterial activity against Pasteurella multocida after oral administration in mice; settings: read-out: PD50
Pasteurella multocida [9] = test: Tested in vivo for the antibacterial activity against Pasteurella multocida after sc administration in mice; settings: read-out: PD50
Salmonella enterica [10] = test: Tested in vivo for the antibacterial activity against Salmonella choleraesuis after sc administration in mice; settings: read-out: PD50
Salmonella enterica [11] = test: Tested in vivo for the antibacterial activity against Salmonella choleraesuis after oral administration in mice; settings: read-out: PD50

Compound | MIC (Escherichia coli [1]) | Protection (Salmonella enterica [2]) | Protection (Salmonella enterica [3]) | MIC (Salmonella enterica [4]) | MIC (Streptococcus pyogenes) | MIC (Pasteurella multocida [5]) | ED50 (Escherichia coli [6]) | ED50 (Escherichia coli [7]) | ED50 (Pasteurella multocida [8]) | ED50 (Pasteurella multocida [9]) | ED50 (Salmonella enterica [10]) | ED50 (Salmonella enterica [11])
COCCN1CCc2c([n+]([O-])c3ccccc3[n+]2[O-])C1=O | 1.56 µg/mL (≈ 5.39 µM) | 60% | 90% | 3.12 µg/mL (≈ 10.8 µM) | 0.78 µg/mL (≈ 2.7 µM) | 3.12 µg/mL (≈ 10.8 µM) |  |  |  |  |  | 
C=CCN1CCc2c([n+]([O-])c3ccccc3[n+]2[O-])C1=O | 3.12 µg/mL (≈ 11.5 µM) | 0% | 30% | 1.56 µg/mL (≈ 5.75 µM) | 0.78 µg/mL (≈ 2.88 µM) | 6.25 µg/mL (≈ 23 µM) |  |  |  |  |  | 
CN1CCc2c([n+]([O-])c3ccccc3[n+]2[O-])C1=O | 0.78 µg/mL (≈ 3.18 µM) | 100% | 100% | 1.56 µg/mL (≈ 6.36 µM) | 1.56 µg/mL (≈ 6.36 µM) | 1.56 µg/mL (≈ 6.36 µM) | 8.53 mg/kg | 6.39 mg/kg | 4.7 mg/kg | 3.8 mg/kg | 2.96 mg/kg | 5.1 mg/kg
O=C1c2c([n+]([O-])c3ccccc3[n+]2[O-])CCN1C1CCCCC1 | 50 µg/mL (≈ 160 µM) | 0% | 0% | 50 µg/mL (≈ 160 µM) | 3.12 µg/mL (≈ 9.96 µM) | 25 µg/mL (≈ 79.8 µM) |  |  |  |  |  | 
O=C1c2c([n+]([O-])c3ccccc3[n+]2[O-])CCN1CCN1CCCCC1 | 3.12 µg/mL (≈ 9.11 µM) | 0% | 30% | 1.56 µg/mL (≈ 4.56 µM) | < 0.39 µg/mL | 25 µg/mL (≈ 73 µM) |  |  |  |  |  | 
O=C1NCCc2c1[n+]([O-])c1ccccc1[n+]2[O-] | 1.56 µg/mL (≈ 6.75 µM) | 0% | 80% | 1.56 µg/mL (≈ 6.75 µM) | 1.56 µg/mL (≈ 6.75 µM) | < 0.39 µg/mL |  |  |  |  |  | 
CCN1CCc2c([n+]([O-])c3ccccc3[n+]2[O-])C1=O | 3.12 µg/mL (≈ 12 µM) | 50% | 70% | 1.56 µg/mL (≈ 6.02 µM) | 1.56 µg/mL (≈ 6.02 µM) | 6.25 µg/mL (≈ 24.1 µM) |  |  |  |  |  | 
O=C1c2c([n+]([O-])c3ccccc3[n+]2[O-])CCN1CCO | 12.5 µg/mL (≈ 45.4 µM) | 0% | 0% | 12.5 µg/mL (≈ 45.4 µM) | 6.25 µg/mL (≈ 22.7 µM) | 12.5 µg/mL (≈ 45.4 µM) |  |  |  |  |  | 
COC(=O)N/N=C/c1c[n+]([O-])c2ccccc2[n+]1[O-] [CARBADOX] | 0.39 µg/mL (≈ 1.49 µM) | 100% | 100% | 0.19 µg/mL (≈ 0.725 µM) | 0.19 µg/mL (≈ 0.725 µM) | 0.78 µg/mL (≈ 2.97 µM) | 5.3 mg/kg | 6.44 mg/kg | 6.14 mg/kg | 4.05 mg/kg | 5.44 mg/kg | 4.47 mg/kg
